Usually inhibition stands for how much of the control response was suppressed.

Our source for the inhibition and Activity values is ChEMBL document CHEMBL4411262, “Ulleungdin, a Lasso Peptide with Cancer Cell Migration Inhibitory Activity Discovered by the Genome Mining Approach” (J Nat Prod, 2018).

SMILES strings stand for the structures. The source made the active and inactive calls. No cut-off for these calls is given here. Where a SMILES comes first, the peptide text is derived from it. Bridges are numbered along the chain shown (N, C = ends).

Series [1] concerns A549. The experiment in a line: Antiinvasive activity against human A549 cells assessed as inhibition of cell invasion at 50 uM after 24 hrs by crystal violet staining based transwell assay relative to control. In kind it is functional. As to conditions: A549, 24 h.
In series [2] the test system is A549. Kind of series: Cytotoxicity against human A549 cells assessed as effect on cell viability up to 100 uM after 24 hrs by EZ-Cytox cell viability assay. In kind it is cell-based. The settings on record: a549, 24 h.
Series [3] has as its system A549. Kind of series: Antimigratory activity against human A549 cells assessed as reduction in cell migration measured at 15 mins interval for 12 hrs by Holomonitor M4 time-lapse cytometric method. In kind it is functional, cell-based.
The subject of series [4] is A549. The experiment in a line: Antimigratory activity against human A549 cells assessed as reduction in cell motility measured at 15 mins interval for 12 hrs by Holomonitor M4 time-lapse cytometric method. In kind it is functional, cell-based.
For series [5], the system named is A549. Kind of series: Effect on ERK expression in human A549 cells up to 50 uM after 24 hrs by Western blot analysis. In kind it is functional, cell-based.
In series [6] the test system is A549. Kind of series: Effect on JNK expression in human A549 cells up to 50 uM after 24 hrs by Western blot analysis. In kind it is functional, cell-based. (A western blot detects proteins with antibodies after separation by electrophoresis.)
Series [7] concerns A549. Kind of series: Effect on p38 expression in human A549 cells up to 50 uM after 24 hrs by Western blot analysis. In kind it is functional, cell-based.
Series [8] deals with A549. The experiment in a line: Effect on FAK expression in human A549 cells up to 50 uM after 24 hrs by Western blot analysis. In kind it is functional, cell-based.
Series [9] relates to A549. Kind of series: Effect on paxillin expression in human A549 cells up to 50 uM after 24 hrs by Western blot analysis. In kind it is functional, cell-based.
Series [10] deals with A549. The experiment in a line: Effect on MMP9 expression in human A549 cells up to 50 uM after 24 hrs by Western blot analysis. In kind it is functional, cell-based.
The test system of series [11] is A549. Kind of series: Effect on MMP2 expression in human A549 cells up to 50 uM after 24 hrs by Western blot analysis. In kind it is functional, cell-based.
Series [12] concerns A549. The experiment in a line: Effect on ERK phosphorylation in human A549 cells up to 50 uM after 24 hrs by Western blot analysis. In kind it is cell-based.
Series [13] has as its target c-Jun N-terminal kinase, JNK (Homo sapiens) (UniProt P45983+P53779+P45984). Kind of series: Effect on JNK phosphorylation in human A549 cells up to 50 uM after 24 hrs by Western blot analysis. In kind it is cell-based.
In series [14] the target is MAP kinase p38 (Homo sapiens) (UniProt O15264+Q15759+Q16539+P53778). The experiment in a line: Effect on p38 phosphorylation in human A549 cells up to 50 uM after 24 hrs by Western blot analysis. In kind it is cell-based.
The target in series [15] is Focal adhesion kinase 1 (Homo sapiens) (UniProt Q05397). The experiment in a line: Effect on FAK phosphorylation in human A549 cells up to 50 uM after 24 hrs by Western blot analysis. In kind it is cell-based.
For a further series, the target named is Paxillin (Homo sapiens) (UniProt P49023). Kind of series: Effect on paxillin phosphorylation in human A549 cells up to 50 uM after 24 hrs by Western blot analysis. In kind it is cell-based.
The target in series [16] is Matrix metalloproteinase-9 (Homo sapiens) (UniProt P14780). The experiment in a line: Effect on MMP9 phosphorylation in human A549 cells up to 50 uM after 24 hrs by Western blot analysis. In kind it is cell-based.
Series [17] deals with 72 kDa type IV collagenase (Homo sapiens) (UniProt P08253). Kind of series: Effect on MMP2 phosphorylation in human A549 cells up to 50 uM after 24 hrs by Western blot analysis. In kind it is cell-based.
Chain of 72 kDa type IV collagenase (Homo sapiens) (P08253 110-660 limits assumed): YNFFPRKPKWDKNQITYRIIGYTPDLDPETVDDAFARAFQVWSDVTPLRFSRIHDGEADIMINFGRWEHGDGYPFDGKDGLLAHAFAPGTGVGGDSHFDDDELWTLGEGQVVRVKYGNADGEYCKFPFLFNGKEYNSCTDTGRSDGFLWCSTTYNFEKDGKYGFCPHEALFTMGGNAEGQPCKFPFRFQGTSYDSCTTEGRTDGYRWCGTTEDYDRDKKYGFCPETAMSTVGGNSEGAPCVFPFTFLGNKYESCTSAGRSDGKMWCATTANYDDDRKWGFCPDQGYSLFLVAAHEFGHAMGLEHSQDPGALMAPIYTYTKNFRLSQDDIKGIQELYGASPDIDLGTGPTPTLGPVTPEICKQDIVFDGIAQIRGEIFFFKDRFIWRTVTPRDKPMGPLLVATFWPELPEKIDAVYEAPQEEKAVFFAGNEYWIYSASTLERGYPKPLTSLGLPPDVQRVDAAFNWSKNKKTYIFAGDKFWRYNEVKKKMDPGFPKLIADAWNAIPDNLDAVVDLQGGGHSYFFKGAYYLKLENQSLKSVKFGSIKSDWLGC

Chain of Paxillin (Homo sapiens) (P49023 whole entry): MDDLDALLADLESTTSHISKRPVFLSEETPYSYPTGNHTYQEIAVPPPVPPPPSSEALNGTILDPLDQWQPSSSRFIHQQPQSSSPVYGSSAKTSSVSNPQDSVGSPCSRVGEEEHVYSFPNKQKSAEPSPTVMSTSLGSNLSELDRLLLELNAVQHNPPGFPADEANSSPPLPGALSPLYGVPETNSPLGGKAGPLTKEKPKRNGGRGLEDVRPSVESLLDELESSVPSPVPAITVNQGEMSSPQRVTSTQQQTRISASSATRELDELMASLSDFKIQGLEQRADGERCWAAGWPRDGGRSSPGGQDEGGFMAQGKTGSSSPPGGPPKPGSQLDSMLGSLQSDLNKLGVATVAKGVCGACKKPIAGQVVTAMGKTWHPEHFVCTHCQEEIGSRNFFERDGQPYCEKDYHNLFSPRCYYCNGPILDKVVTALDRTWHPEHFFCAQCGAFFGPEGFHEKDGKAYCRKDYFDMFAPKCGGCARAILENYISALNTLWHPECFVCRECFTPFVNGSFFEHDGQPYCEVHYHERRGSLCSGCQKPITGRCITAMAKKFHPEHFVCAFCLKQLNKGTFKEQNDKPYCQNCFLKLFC
Chain of Focal adhesion kinase 1 (Homo sapiens) (Q05397 2-1052 limits assumed): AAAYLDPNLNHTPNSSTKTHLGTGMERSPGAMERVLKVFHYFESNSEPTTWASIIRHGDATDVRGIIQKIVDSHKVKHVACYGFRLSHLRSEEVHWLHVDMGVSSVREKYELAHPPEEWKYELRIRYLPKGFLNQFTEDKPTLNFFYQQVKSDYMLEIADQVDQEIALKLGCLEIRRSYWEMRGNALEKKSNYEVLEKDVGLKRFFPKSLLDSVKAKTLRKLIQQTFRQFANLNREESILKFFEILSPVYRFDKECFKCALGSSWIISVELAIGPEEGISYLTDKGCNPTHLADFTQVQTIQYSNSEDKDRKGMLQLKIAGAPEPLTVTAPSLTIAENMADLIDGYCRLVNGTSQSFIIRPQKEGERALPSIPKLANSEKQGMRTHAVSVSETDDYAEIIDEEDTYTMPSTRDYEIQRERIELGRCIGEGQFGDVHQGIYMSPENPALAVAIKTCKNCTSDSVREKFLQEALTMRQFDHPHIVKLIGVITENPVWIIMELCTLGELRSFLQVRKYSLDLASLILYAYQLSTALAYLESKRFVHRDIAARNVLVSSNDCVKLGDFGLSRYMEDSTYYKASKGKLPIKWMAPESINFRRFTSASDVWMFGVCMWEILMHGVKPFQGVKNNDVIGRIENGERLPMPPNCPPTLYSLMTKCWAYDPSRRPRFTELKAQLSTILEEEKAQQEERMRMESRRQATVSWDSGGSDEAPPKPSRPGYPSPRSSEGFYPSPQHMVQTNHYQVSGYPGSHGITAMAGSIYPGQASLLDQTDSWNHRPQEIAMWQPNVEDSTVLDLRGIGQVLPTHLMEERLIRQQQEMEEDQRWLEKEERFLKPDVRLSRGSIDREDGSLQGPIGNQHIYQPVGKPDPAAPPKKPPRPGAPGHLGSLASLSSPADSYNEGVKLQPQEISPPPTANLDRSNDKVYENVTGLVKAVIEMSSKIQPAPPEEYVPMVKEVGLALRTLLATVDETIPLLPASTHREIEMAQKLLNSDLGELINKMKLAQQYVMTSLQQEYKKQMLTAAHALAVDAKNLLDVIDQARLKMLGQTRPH
Chain of Matrix metalloproteinase-9 (Homo sapiens) (P14780 whole entry): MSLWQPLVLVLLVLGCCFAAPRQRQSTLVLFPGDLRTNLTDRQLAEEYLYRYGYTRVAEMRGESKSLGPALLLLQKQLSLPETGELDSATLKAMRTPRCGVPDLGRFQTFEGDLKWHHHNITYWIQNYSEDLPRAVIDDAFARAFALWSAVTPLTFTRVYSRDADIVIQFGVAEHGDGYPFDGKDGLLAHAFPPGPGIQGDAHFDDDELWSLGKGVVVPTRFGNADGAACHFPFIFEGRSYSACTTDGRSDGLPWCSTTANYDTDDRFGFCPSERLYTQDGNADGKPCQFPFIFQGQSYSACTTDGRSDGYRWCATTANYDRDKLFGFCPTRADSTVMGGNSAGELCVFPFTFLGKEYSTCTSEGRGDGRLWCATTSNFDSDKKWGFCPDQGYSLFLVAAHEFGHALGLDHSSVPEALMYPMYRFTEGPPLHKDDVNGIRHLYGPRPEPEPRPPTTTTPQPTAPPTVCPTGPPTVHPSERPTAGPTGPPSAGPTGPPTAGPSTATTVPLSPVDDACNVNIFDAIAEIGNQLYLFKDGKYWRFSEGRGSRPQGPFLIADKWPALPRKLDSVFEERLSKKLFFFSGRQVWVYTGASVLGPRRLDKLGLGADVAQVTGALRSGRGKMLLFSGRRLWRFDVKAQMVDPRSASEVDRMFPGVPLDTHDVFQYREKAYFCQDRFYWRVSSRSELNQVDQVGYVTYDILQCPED

With `CC[C@H](C)[C@@H]1NC(=O)[C@@H]2CCCN2C(=O)[C@H](CCCCN)NC(=O)[C@H](CO)NC(=O)CNC(=O)[C@H](Cc2ccccc2)NC(=O)CNC(=O)C[C@@H](C(=O)N[C@@H](CO)C(=O)N[C@@H](Cc2ccccc2)C(=O)NCC(=O)N[C@@H](CC(C)C)C(=O)N[C@@H](CO)C(=O)N[C@@H](Cc2c[nH]c3ccccc23)C(=O)N[C@@H](CC(C)C)C(=O)O)NC1=O` [SUNGSANPIN] (GFGSKPIDSFGLSWL-OH; lactam N-8), the inhibition at 50 µM in the series on A549 [1] was 53%.

As to `CC[C@H](C)[C@@H]1NC(=O)[C@H](Cc2ccccc2)NC(=O)CNC(=O)C[C@@H](C(=O)N[C@H](C(=O)N[C@@H](Cc2ccccc2)C(=O)NCC(=O)N[C@@H](Cc2cnc[nH]2)C(=O)N[C@@H](Cc2ccc(O)cc2)C(=O)NCC(=O)NCC(=O)O)[C@@H](C)CC)NC(=O)[C@H](CCCCN)NC(=O)CNC(=O)[C@H](Cc2c[nH]c3ccccc23)NC(=O)CNC1=O` (GFIGWGKDIFGHYGG-OH; lactam N-8), the results for the Activity result with A549 [2], in the series with A549 [3] and in the series with A549 [4] were “Non-Toxic”, “Dose-dependent effect” and “Dose-dependent effect”, respectively. Moreover, the inhibition at 50 µM with A549 [1] came to 48.4%. Also, the outcome in the series on A549 [5], in the series on A549 [6], with A549 [7], with A549 [8], in the series on A549 [9] and in the series with A549 [10] was inactive. Moreover, the outcome (in the series with A549 [11]; with A549 [12]; in series [13]; in series [14]; in series [15]; at Paxillin (Homo sapiens)) was inactive. The outcome in series [16] and in series [17] was inactive.

Turning to `CC(C)C[C@H](NC(=O)CNC(=O)[C@H](Cc1ccccc1)NC(=O)[C@H](CO)NC(=O)[C@@H]1CC(=O)NCC(=O)N[C@@H](Cc2ccccc2)C(=O)NCC(=O)N[C@@H](CO)C(=O)N[C@@H](CCCCN)C(=O)N2CCC[C@H]2C(=O)N[C@@H](CC(C)C)C(=O)N1)C(=O)N[C@@H](CC(N)=O)C(=O)N[C@@H](Cc1ccccc1)C(=O)N[C@@H](Cc1ccccc1)C(=O)O` (GFGSKPLDSFGLNFF-OH; lactam N-8), in the series on A549 [1], the inhibition at 50 µM came out at 56%.
